Data reported in PMC8199213, “Pharmacophore-Based Virtual Screening of Novel Competitive Inhibitors of the Neurodegenerative Disease Target Kynurenine-3-Monooxygenase” (Molecules, 2021).

Legend:
[1] = biological target: T1, human kynurenine-3-monooxygenase (hKMO) (Homo sapiens, UniProt O15229); test: KMO NADPH-consumption assay (BPS Bioscience KMO Screening Kit), dose-response; positive control; assay type: biochemical
T1 construct: gene KMO; purified KMO protein with C-terminal His-FLAG-tag

[2] = biological target: T1, human kynurenine-3-monooxygenase (hKMO); test: KMO NADPH-consumption assay; […] inhibition at […], […] at […]; assay type: biochemical

T1 sequence (O15229 whole entry): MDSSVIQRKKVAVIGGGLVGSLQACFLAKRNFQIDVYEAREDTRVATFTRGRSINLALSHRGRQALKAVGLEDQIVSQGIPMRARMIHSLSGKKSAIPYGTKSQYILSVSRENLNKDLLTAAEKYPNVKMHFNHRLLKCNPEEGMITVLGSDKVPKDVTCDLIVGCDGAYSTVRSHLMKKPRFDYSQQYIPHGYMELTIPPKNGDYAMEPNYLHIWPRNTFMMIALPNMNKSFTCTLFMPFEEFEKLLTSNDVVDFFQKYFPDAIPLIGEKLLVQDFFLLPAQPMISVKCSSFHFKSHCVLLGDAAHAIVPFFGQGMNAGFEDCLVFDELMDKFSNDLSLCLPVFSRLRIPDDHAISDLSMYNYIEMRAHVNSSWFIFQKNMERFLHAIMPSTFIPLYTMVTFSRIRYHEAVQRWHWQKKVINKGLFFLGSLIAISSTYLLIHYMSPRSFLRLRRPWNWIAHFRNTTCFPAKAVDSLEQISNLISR

| SMILES | IC50 [1] [nM] | IC50 [2] [nM] |
| --- | --- | --- |
| COc1ccc(S(=O)(=O)Nc2nc(-c3cccc([N+](=O)[O-])c3)cs2)cc1OC [Ro 61-8084] | 727 ± 88 | – |
| Cc1cc2nc(CCC(=O)O)c(=O)[nH]c2cc1C [VS6, F6548-0495] | – | < 10000 |
